Numbered stars: 1 amine (or outer) side, 2 acyl side, 3 side chain; on linkers, the order of the positions; unused ones are H or OH. Bridge positions count the residues as written; N and C are the ends. Square brackets hold non-standard residues; d marks the D form. Side chains are listed from the residue outwards. Peptide text beside a SMILES is read from it. * marks the point of attachment. ξ: configuration not given here. NH(CH2)2O(CH2)2NHDOTA = O=C(O)CN1CCN(CC(=O)O)CCN(CC(=O)NCCOCCN*)CCN(CC(=O)O)CC1; X4 = O=C(O)CN1CCN(CC(=O)O)CCN(CC(=O)N2CCc3cc(C(=O)*)ccc3C2)CCN(CC(=O)O)CC1; NH(CH2)5NHDOTA = O=C(O)CN1CCN(CC(=O)O)CCN(CC(=O)NCCCCCN*)CCN(CC(=O)O)CC1; DOTA = O=C(O)CN1CCN(CC(=O)O)CCN(CC(=O)*)CCN(CC(=O)O)CC1; Azetidine3carboxylic = O=C(C1CN([*:1])C1)[*:2]; Pyridine(3,5-bisCH2) = c1ncc(C[*:2])cc1C[*:1]; mXylylene = c1cc(C[*:1])cc(C[*:2])c1; Ethylenediamine = C(CN[*:2])N[*:1]; d(β3hD) = NC(CC(=O)O)CC(=O)O; CH2CH2 = C(C[*:2])[*:1]; Dap = NC[C@H](N)C(=O)O; Hexanoyl = CCCCCC(=O)*; CO = O=C([*:1])[*:2]; ξP = O=C(O)C1CCCN1; Ava = NCCCCC(=O)O; ξC = NC(CS)C(=O)O; NHBu = CCCCN*
target: T1, FAP protein (Homo sapiens, UniProt Q12884); assay: Biacore test of compound affinity to FAP protein; details: Biacore 8K, SA chip, 15° C., 1:1 binding model; read-out: pKD (FAP) (converted)
T1 construct: purchased Sinobiological
T1 sequence (Q12884 1-760): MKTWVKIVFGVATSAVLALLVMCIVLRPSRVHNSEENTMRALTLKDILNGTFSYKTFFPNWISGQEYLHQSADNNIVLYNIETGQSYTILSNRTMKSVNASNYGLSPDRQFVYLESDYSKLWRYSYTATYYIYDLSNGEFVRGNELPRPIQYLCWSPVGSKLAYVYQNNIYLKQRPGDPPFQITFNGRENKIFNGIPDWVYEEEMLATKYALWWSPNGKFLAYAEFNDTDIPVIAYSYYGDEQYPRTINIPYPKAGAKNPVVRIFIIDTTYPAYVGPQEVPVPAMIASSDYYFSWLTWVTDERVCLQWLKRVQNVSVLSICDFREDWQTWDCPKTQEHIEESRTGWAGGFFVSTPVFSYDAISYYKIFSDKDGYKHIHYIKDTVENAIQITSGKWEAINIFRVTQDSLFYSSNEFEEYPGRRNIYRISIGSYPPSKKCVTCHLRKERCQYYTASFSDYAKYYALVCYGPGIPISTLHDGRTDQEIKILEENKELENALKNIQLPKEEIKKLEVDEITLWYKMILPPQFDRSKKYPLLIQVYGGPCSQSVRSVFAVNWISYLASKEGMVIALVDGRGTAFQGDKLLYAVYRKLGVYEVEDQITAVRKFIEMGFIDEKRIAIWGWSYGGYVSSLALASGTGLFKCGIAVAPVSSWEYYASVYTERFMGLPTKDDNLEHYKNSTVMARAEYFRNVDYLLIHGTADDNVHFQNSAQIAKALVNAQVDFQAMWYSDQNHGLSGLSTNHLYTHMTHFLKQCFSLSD
Method: The Biacore 8K (Cytiva) instrument was used to detect ligand binding of the FAP protein (Sinobiological). FAP protein was captured on the SA chip. […] The sensor surface was conditioned by injecting 1M NaCl three consecutive times in 50 mM NaOH. After each ligand injection, additional cleaning was performed using isopropanol in 1M NaCl and 50 mM NaOH (flow path 1 and 2, flow rate of 10 μL/min, injection time of 60 s). […] The analyte was run under the following conditions: analysis temperature of 15° C., analysis step=all set to LMW kinetics; cycle type=single cycle (contact time of 90 s, dissociation time of 1800 s, flow rate of 30 μL/min, flow channels 1 and 2); channel detection=2-1. Data was evaluated using the Biacore Insight Evaluation Software, and the data were fitted to a 1:1 binding model. The Biacore results are shown in Table 2 below: pKD=−Log KD, where KD is the binding affinity of the compound to the FAP protein as measured by Biacore.

Kd, 10 to 100 nM:
CCCCCC(=O)N[C@H]1CSCc2cccc(c2)CSCC(C(=O)N[C@@H](CCC(=O)NCCNC(=O)c2ccc3c(c2)CCN(C(=O)CN2CCN(CC(=O)O)CCN(CC(=O)O)CCN(CC(=O)O)CC2)C3)C(=O)O)NC(=O)[C@H](Cc2ccccc2)NC(=O)[C@H](CCC(N)=O)NC(=O)[C@H]([C@@H](C)O)NC(=O)C2CCCN2C(=O)C2CN(C2)C1=O (stereo partly drawn) [JHDC25, Hex[Cys(3MeBn)-hhy39-Pro-Thr-Gln-Phe-Cys]-Glu-(EDA-hhy02-DOTA)-OH] (Hexanoyl-C[Azetidine3carboxylic][ξP]TQF[ξC]E([Ethylenediamine-X4])-OH; linker 1-7 via mXylylene)
CCCCNC(=O)N[C@H]1CSCc2cccc(c2)CSCC(C(=O)N[C@@H](CCC(=O)NCCNC(=O)c2ccc3c(c2)CCN(C(=O)CN2CCN(CC(=O)O)CCN(CC(=O)O)CCN(CC(=O)O)CC2)C3)C(=O)O)NC(=O)[C@H](Cc2ccccc2)NC(=O)[C@H](CCC(N)=O)NC(=O)[C@H]([C@@H](C)O)NC(=O)C2CCCN2C(=O)C2CN(C2)C1=O (stereo partly drawn) [JHDC26, nBu-urea-[Cys(3MeBn)-hhy39-Pro-Thr-Gln-Phe-Cys]-Glu-(EDA-hhy02-DOTA)-OH] ({NHBu-CO}-C[Azetidine3carboxylic][ξP]TQF[ξC]E([Ethylenediamine-X4])-OH; linker 1-7 via mXylylene)
CCCCCC(=O)N[C@H]1CSCCSCC(C(=O)N[C@@H](CCC(=O)NCCOCCNC(=O)CN2CCN(CC(=O)O)CCN(CC(=O)O)CCN(CC(=O)O)CC2)C(=O)O)NC(=O)[C@H](Cc2ccccc2)NC(=O)[C@H](CCC(N)=O)NC(=O)[C@H]([C@@H](C)O)NC(=O)C2CCCN2C(=O)C2CN(C2)C1=O (stereo partly drawn) [JHDC27, Hex[Cys(ethylene)-hhy39-Pro-Thr-Gln-Phe-Cys]-Glu-(DAPEG2-DOTA)-OH] (Hexanoyl-C[Azetidine3carboxylic][ξP]TQF[ξC]E(NH(CH2)2O(CH2)2NHDOTA)-OH; linker 1-7 via CH2CH2)
CCCCNC(=O)N[C@H]1CSCc2cccc(c2)CSCC(C(=O)N[C@@H](CCC(=O)NCCCCCNC(=O)CN2CCN(CC(=O)O)CCN(CC(=O)O)CCN(CC(=O)O)CC2)C(=O)O)NC(=O)[C@H](Cc2ccccc2)NC(=O)[C@H](CCC(N)=O)NC(=O)[C@H]([C@@H](C)O)NC(=O)C2CCCN2C(=O)C2CN(C2)C1=O (stereo partly drawn) [JHDC28, nBu-urea-[Cys(3MeBn)-hhy39-Pro-Thr-Gln-Phe-Cys]-Glu-(PDA-DOTA)-OH] ({NHBu-CO}-C[Azetidine3carboxylic][ξP]TQF[ξC]E(NH(CH2)5NHDOTA)-OH; linker 1-7 via mXylylene)
CCCCCC(=O)N[C@H]1CSCc2cccc(c2)CSCC(C(=O)N[C@@H](CCC(=O)NCCCCCNC(=O)CN2CCN(CC(=O)O)CCN(CC(=O)O)CCN(CC(=O)O)CC2)C(=O)O)NC(=O)[C@H](Cc2ccccc2)NC(=O)[C@H](CCC(N)=O)NC(=O)[C@H]([C@@H](C)O)NC(=O)C2CCCN2C(=O)C2CN(C2)C1=O (stereo partly drawn) [JHDC29, Hex[Cys(3MeBn)-hhy39-Pro-Thr-Gln-Phe-Cys]-Glu-(PDA-DOTA)-OH] (Hexanoyl-C[Azetidine3carboxylic][ξP]TQF[ξC]E(NH(CH2)5NHDOTA)-OH; linker 1-7 via mXylylene)
CCCCCC(=O)N[C@H]1CSSCC(C(=O)N[C@@H](CCC(=O)NCCOCCNC(=O)CN2CCN(CC(=O)O)CCN(CC(=O)O)CCN(CC(=O)O)CC2)C(=O)O)NC(=O)[C@H](Cc2ccccc2)NC(=O)[C@H](CCC(N)=O)NC(=O)[C@H]([C@@H](C)O)NC(=O)C2CCCN2C(=O)C2CN(C2)C1=O (stereo partly drawn) [JHDC30, Hex[Cys(SS)-hhy39-Pro-Thr-Gln-Phe-Cys]-Glu-(DAPEG2-DOTA)-OH] (Hexanoyl-C[Azetidine3carboxylic][ξP]TQF[ξC]E(NH(CH2)2O(CH2)2NHDOTA)-OH; disulfide 1-7)
CCCCNC(=O)N[C@H]1CSSCC(C(=O)N[C@@H](CCC(=O)NCCOCCNC(=O)CN2CCN(CC(=O)O)CCN(CC(=O)O)CCN(CC(=O)O)CC2)C(=O)O)NC(=O)[C@H](Cc2ccccc2)NC(=O)[C@H](CCC(N)=O)NC(=O)[C@H]([C@@H](C)O)NC(=O)C2CCCN2C(=O)C2CN(C2)C1=O (stereo partly drawn) [JHDC31, nBu-urea-[Cys(SS)-hhy39-Pro-Thr-Gln-Phe-Cys]-Glu-(DAPEG2-DOTA)-OH] ({NHBu-CO}-C[Azetidine3carboxylic][ξP]TQF[ξC]E(NH(CH2)2O(CH2)2NHDOTA)-OH; disulfide 1-7)
CCCCCC(=O)N[C@H]1CSCc2cncc(c2)CSCC(C(=O)N[C@@H](CCC(=O)NCCOCCNC(=O)CN2CCN(CC(=O)O)CCN(CC(=O)O)CCN(CC(=O)O)CC2)C(=O)O)NC(=O)[C@H](Cc2ccccc2)NC(=O)[C@H](CCC(N)=O)NC(=O)[C@H]([C@@H](C)O)NC(=O)C2CCCN2C(=O)C2CN(C2)C1=O (stereo partly drawn) [JHDC32, Hex[Cys(3MePy)-hhy39-Pro-Thr-Gln-Phe-Cys]-Glu-(DAPEG2-DOTA)-OH] (Hexanoyl-C[Azetidine3carboxylic][ξP]TQF[ξC]E(NH(CH2)2O(CH2)2NHDOTA)-OH; linker 1-7 via Pyridine(3,5-bisCH2))
CCCCNC(=O)N[C@H]1CSCc2cncc(c2)CSCC(C(=O)N[C@@H](CCC(=O)NCCOCCNC(=O)CN2CCN(CC(=O)O)CCN(CC(=O)O)CCN(CC(=O)O)CC2)C(=O)O)NC(=O)[C@H](Cc2ccccc2)NC(=O)[C@H](CCC(N)=O)NC(=O)[C@H]([C@@H](C)O)NC(=O)C2CCCN2C(=O)C2CN(C2)C1=O (stereo partly drawn) [JHDC33, nBu-urea-[Cys(3MePy)-hhy39-Pro-Thr-Gln-Phe-Cys]-Glu-(DAPEG2-DOTA)-OH] ({NHBu-CO}-C[Azetidine3carboxylic][ξP]TQF[ξC]E(NH(CH2)2O(CH2)2NHDOTA)-OH; linker 1-7 via Pyridine(3,5-bisCH2))
CCCCNC(=O)N[C@H]1CSCc2cccc(c2)CSCC(C(=O)N[C@H](CC(=O)O)CC(=O)NCCOCCNC(=O)CN2CCN(CC(=O)O)CCN(CC(=O)O)CCN(CC(=O)O)CC2)NC(=O)[C@H](Cc2ccccc2)NC(=O)[C@H](CCC(N)=O)NC(=O)[C@H]([C@@H](C)O)NC(=O)C2CCCN2C(=O)C2CN(C2)C1=O (stereo partly drawn) [JHDC34, nBu-urea-[Cys(3MeBn)-hhy39-Pro-Thr-Gln-Phe-Cys]-p-Glu-(DAPEG2-DOTA)-OH] ({NHBu-CO}-C[Azetidine3carboxylic][ξP]TQF[ξC][d(β3hD)]-{NH(CH2)2O(CH2)2NHDOTA}; linker 1-7 via mXylylene)
CCCCNC(=O)N[C@H]1CSCc2cccc(c2)CSCC(C(=O)N[C@H](CC(=O)O)CC(=O)NCCNC(=O)CN2CCN(CC(=O)O)CCN(CC(=O)O)CCN(CC(=O)O)CC2)NC(=O)[C@H](Cc2ccccc2)NC(=O)[C@H](CCC(N)=O)NC(=O)[C@H]([C@@H](C)O)NC(=O)C2CCCN2C(=O)C2CN(C2)C1=O (stereo partly drawn) [JHDC35, nBu-urea-[Cys(3MeBn)-hhy39-Pro-Thr-Gln-Phe-Cys]-p-Glu-(EDA-DOTA)-OH] ({NHBu-CO}-C[Azetidine3carboxylic][ξP]TQF[ξC][d(β3hD)]-{Ethylenediamine-DOTA}; linker 1-7 via mXylylene)
CCCCCC(=O)N[C@H]1CSCc2cccc(c2)CSCC(C(=O)N[C@H](CC(=O)O)CC(=O)NCCOCCNC(=O)CN2CCN(CC(=O)O)CCN(CC(=O)O)CCN(CC(=O)O)CC2)NC(=O)[C@H](Cc2ccccc2)NC(=O)[C@H](CCC(N)=O)NC(=O)[C@H]([C@@H](C)O)NC(=O)C2CCCN2C(=O)C2CN(C2)C1=O (stereo partly drawn) [JHDC36, Hex-[Cys(3MeBn)-hhy39-Pro-Thr-Gln-Phe-Cys]-β-Glu-(DAPEG2-DOTA)-OH] (Hexanoyl-C[Azetidine3carboxylic][ξP]TQF[ξC][d(β3hD)]-{NH(CH2)2O(CH2)2NHDOTA}; linker 1-7 via mXylylene)
CCCCCC(=O)N[C@H]1CSCc2cccc(c2)CSCC(C(=O)N[C@@H](CNC(=O)CCCCNC(=O)CN2CCN(CC(=O)O)CCN(CC(=O)O)CCN(CC(=O)O)CC2)C(=O)O)NC(=O)[C@H](Cc2ccccc2)NC(=O)[C@H](CCC(N)=O)NC(=O)[C@H]([C@@H](C)O)NC(=O)C2CCCN2C(=O)C2CN(C2)C1=O (stereo partly drawn) [JHDC40, Hex-[Cys(3MeBn)-hhy39-Pro-Thr-Gln-Phe-Cys]-DAPA-(APTA-DOTA)-OH] (Hexanoyl-C[Azetidine3carboxylic][ξP]TQF[ξC][Dap]([Ava-DOTA])-OH; linker 1-7 via mXylylene)

— patent publication US20260274894A1, “CYCLIC POLYPEPTIDE COMPOUND AND USE THEREOF” (BIVISION PHARMACEUTICALS, INC., priority 2023, published 2026)
